Laboratory results taken from patent publication US20210214375A1 (LUNDBECK LA JOLLA RESEARCH CENTER, INC., priority 2017, published 2021).

How the values were obtained:
MGLL = target: T1, MGLL (Mus musculus, UniProt O35678); assay: In vitro competitive activity-based protein profiling, mouse brain proteome; format: biochemical
T1 construct: Brain; from tissue; host or cells: mouse brain proteome
T1 sequence (O35678 1-303): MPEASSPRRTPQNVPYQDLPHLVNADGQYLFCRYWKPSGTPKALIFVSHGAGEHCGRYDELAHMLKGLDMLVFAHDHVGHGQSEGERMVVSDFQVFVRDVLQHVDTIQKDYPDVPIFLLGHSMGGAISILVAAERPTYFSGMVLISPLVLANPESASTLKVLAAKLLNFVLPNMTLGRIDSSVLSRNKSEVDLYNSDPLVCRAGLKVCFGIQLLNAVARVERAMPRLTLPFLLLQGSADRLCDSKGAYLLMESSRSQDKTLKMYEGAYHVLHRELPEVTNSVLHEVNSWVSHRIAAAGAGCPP
Experimental: [Worded in the source for another species; this species is reported under the same test.] (§1) Proteomes (human prefrontal cortex or cell membrane fractions) (50 μL, 1.0 mg/mL total protein concentration) were preincubated with varying concentrations of inhibitors at 37° C. After 30 min, FP—Rh or HT-01 (1.0 μL, 50 μM in DMSO) was added and the mixture was incubated for another 30 min at room temperature. Reactions were quenched with SDS loading buffer (15 μL-4×) and run on SDS-PAGE.

ABHD6 = target: T2, ABHD6 (Mus musculus, UniProt Q8R2Y0); assay: In vitro competitive activity-based protein profiling, mouse brain proteome, ABHD6; format: biochemical; conditions: mouse
T2 construct: Brain; from tissue; host or cells: mouse brain proteome
T2 sequence (Q8R2Y0 1-336): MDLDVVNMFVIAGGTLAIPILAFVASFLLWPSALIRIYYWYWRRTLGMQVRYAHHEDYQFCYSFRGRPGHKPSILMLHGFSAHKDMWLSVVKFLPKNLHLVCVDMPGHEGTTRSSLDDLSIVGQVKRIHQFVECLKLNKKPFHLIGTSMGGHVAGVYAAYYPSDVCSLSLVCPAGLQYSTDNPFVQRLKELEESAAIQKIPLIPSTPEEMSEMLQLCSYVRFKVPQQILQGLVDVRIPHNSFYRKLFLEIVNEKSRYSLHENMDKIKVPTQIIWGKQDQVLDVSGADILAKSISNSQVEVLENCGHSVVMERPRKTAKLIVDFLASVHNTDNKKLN
Experimental: [Worded in the source for another target; this target is reported under the same test.] as §1

Structure (SMILES)	IC50 (MGLL) [nM]	IC50 (ABHD6) [nM]
CS(=O)(=O)N1CCc2cccc(CN3CCC4(CC3)CCN(C(=O)OC(C(F)(F)F)C(F)(F)F)C4)c2C1 [Example 217, 1,1,1,3,3,3-Hexafluoropropan-2-yl 8-((2-(methylsulfonyl)-1,2,3,4-tetrahydroisoquinolin-8-yl)methyl)-2,8-diazaspiro[4.5]decane-2-carboxylate]	< 100	100 to 1000
CS(=O)(=O)N1CC2CN(c3cc(C(F)(F)F)ccc3CN3CCN(C(=O)OC(C(F)(F)F)C(F)(F)F)CC3)CC2C1 (stereo not drawn) [Example 201, 1,1,1,3,3,3-Hexafluoropropan-2-yl 4-(2-(5-(methylsulfonyl)hexahydropyrrolo[3,4-c]pyrrol-2(1H)-yl)-4-(trifluoromethyl)benzyl)piperazine-1-carboxylate]	< 100	> 1000
O=C(OC(C(F)(F)F)C(F)(F)F)N1CCC2(CC1)CN(Cc1c(N3CCOCC3)cccc1C(F)(F)F)C2 [Example 43, 1,1,1,3,3,3-Hexafluoropropan-2-yl 2-(2-morpholino-6-(trifluoromethyl)benzyl)-2,7-diazaspiro[3.5]nonane-7-carboxylate]	< 100	100 to 1000
CN1CC2(CCN(c3cc(Cl)ccc3CN3CCN(C(=O)OC(C(F)(F)F)C(F)(F)F)CC3)C2)C1 [Example 169, 1,1,1,3,3,3-Hexafluoropropan-2-yl 4-(4-chloro-2-(2-methyl-2,6-diazaspiro[3.4]octan-6-yl)benzyl)piperazine-1-carboxylate]	100 to 1000	> 1000
CCN1CC2(CCN(c3cc(Cl)ccc3CN3CCN(C(=O)OC(C(F)(F)F)C(F)(F)F)CC3)C2)C1 [Example 173, 1,1,1,3,3,3-Hexafluoropropan-2-yl 4-(4-chloro-2-(2-ethyl-2,6-diazaspiro[3.4]octan-6-yl)benzyl)piperazine-1-carboxylate]	100 to 1000	> 1000
CN1CC2CN(c3cc(Cl)ccc3CN3CCN(C(=O)OC(C(F)(F)F)C(F)(F)F)CC3)CC2C1 (stereo not drawn) [Example 206, 1,1,1,3,3,3-Hexafluoropropan-2-yl 4-(4-chloro-2-(5-methylhexahydro-pyrrolo[3,4-c]pyrrol-2(1H)-yl)benzyl)piperazine-1-carboxylate]	100 to 1000	> 1000
O=C(OC(C(F)(F)F)C(F)(F)F)N1CC2(CCN(Cc3ccc(C(F)(F)F)cc3N3CCOCC3)CC2)C1 [Example 40, 1,1,1,3,3,3-Hexafluoropropan-2-yl 7-(2-morpholino-4-(trifluoromethyl)benzyl)-2,7-diazaspiro[3.5]nonane-2-carboxylate]	< 100	< 100
CC(=O)N1CCCC12CCN(c1cc(Cl)ccc1CN1CCN(C(=O)OC(C(F)(F)F)C(F)(F)F)CC1)CC2 [Example 204, 1,1,1,3,3,3-Hexafluoropropan-2-yl 4-(2-(1-acetyl-1,8-diazaspiro[4.5]decan-8-yl)-4-chlorobenzyl) piperazie-1-carboxylate]	100 to 1000	> 1000
O=C(OC(C(F)(F)F)C(F)(F)F)N1CCC2(CC1)CN(Cc1ccc(N3CCCC3)cc1)C2 [Example 80, 1,1,1,3,3,3-Hexafluoropropan-2-yl 2-(4-(pyrrolidin-1-yl)benzyl)-2,7-diazaspiro[3.5]nonane-7-carboxylate]	< 100	> 1000
O=C(OC(C(F)(F)F)C(F)(F)F)N1CC2(CCN(Cc3c(N4CC5COCC5C4)cccc3C(F)(F)F)CC2)C1 (stereo not drawn) [Example 33]	100 to 1000	100 to 1000
CS(=O)(=O)N1CCCC12CCN(c1cc(C(F)(F)F)ccc1CN1CCN(C(=O)OC(C(F)(F)F)C(F)(F)F)CC1)CC2 [Example 209, 1,1,1,3,3,3-Hexafluoropropan-2-yl-((2-(1-(methylsulfonyl)-1,8-diazaspiro[4.5]decan-8-yl)-4-(trifluoromethyl)benzyl)piperazine-1-carboxylate]	< 100	100 to 1000
CC(=O)N1CCCc2cccc(CN3CC4(CCN(C(=O)OC(C(F)(F)F)C(F)(F)F)CC4)C3)c21 [Example 15, 1,1,1,3,3,3-Hexafluoropropan-2-yl 2-((1-acetyl-1,2,3,4-tetrahydroquinolin-8-yl)methyl)-2,7-diazaspiro[3.5]nonane-7-carboxylate]	< 100	100 to 1000
O=C(OC(C(F)(F)F)C(F)(F)F)N1CCC2(CCCN2C(=O)c2ccc(C(F)(F)F)cc2)CC1 [Example 83, 1,1,1,3,3,3-Hexafluoropropan-2-yl 1-(4-(trifluoromethyl)benzoyl)-1,8-diazaspiro[4.5]decane-8-carboxylate]	< 100	100 to 1000
CS(=O)(=O)N1CCC2(CCN(c3cc(Cl)cc(CN4CCCC45CN(C(=O)OC(C(F)(F)F)C(F)(F)F)C5)c3)CC2)C1 [Example 232]	> 1000	100 to 1000
O=C(OC(C(F)(F)F)C(F)(F)F)N1CCC2(CCN(Cc3ccc(C(F)(F)F)cc3N3CC4COCC4C3)CC2)C1 (stereo not drawn) [Example 188, 1,1,1,3,3,3-Hexafluoropropan-2-yl 8-(2-(tetrahydro-1H-furo[3,4-c]pyrrol-5(3H)-yl)-4-(trifluoromethyl)benzyl)-2,8-diazaspiro[4.5]decane-2-carboxylate]	100 to 1000	> 1000
CC(=O)N1CCCc2cccc(CN3CCC4(CC3)CN(C(=O)OC(C(F)(F)F)C(F)(F)F)C4)c21 [Example 152, 1,1,1,3,3,3-Hexafluoropropan-2-yl 7-((1-acetyl-1,2,3,4-tetrahydroquinolin-8-yl)methyl)-2,7-diazaspiro[3.5]nonane-2-carboxylate]	< 100	< 100
CN1CCCC12CCN(c1cc(C(F)(F)F)ccc1CN1CCN(C(=O)OC(C(F)(F)F)C(F)(F)F)CC1)CC2 [Example 215, 1,1,1,3,3,3-Hexafluoropropan-2-yl 4-(2-(1-methyl-1,8-diazaspiro[4.5]decan-8-yl)-4-(trifluoromethyl)benzyl)piperazine-1-carboxylate]	100 to 1000	> 1000
O=C(OC(C(F)(F)F)C(F)(F)F)N1CCC2(CC1)CN(Cc1cccc(C(F)(F)F)c1)C2 [Example 89, 1,1,1,3,3,3-Hexafluoropropan-2-yl 2-(3-(trifluoromethyl)benzyl)-2,7-diazaspiro[3.5]nonane-7-carboxylate]	< 100	< 100
O=C(OC(C(F)(F)F)C(F)(F)F)N1CCC2(CCCN2C(=O)c2ccc(Cl)cc2)CC1 [Example 13, 1,1,1,3,3,3-Hexafluoropropan-2-yl 1-(4-chlorobenzoyl)-1,8-diazaspiro[4.5]decane-8-carboxylate]	< 100	100 to 1000
CC(=O)N1CCCc2cccc(CN3CCC4(CC3)CCN(C(=O)OC(C(F)(F)F)C(F)(F)F)C4)c21 [Example 193, 1,1,1,3,3,3-Hexafluoropropan-2-yl 8-((1-acetyl-1,2,3,4-tetrahydroquinolin-8-yl)methyl)-2,8-diazaspiro[4.5]decane-2-carboxylate]	> 1000	> 1000
CN1CCCC12CCN(c1cc(Cl)ccc1CN1CCN(C(=O)OC(C(F)(F)F)C(F)(F)F)CC1)CC2 [Example 214, 1,1,1,3,3,3-Hexafluoropropan-2-yl 4-(4-chloro-2-(1-methyl-1,8-diazaspiro[4.5]decan-8-yl)benzyl)piperazine-1--carboxylate]	100 to 1000	> 1000
